According to patent US10562891B2, “Quinazolinones as PARP14 inhibitors” (Ribon Therapeutics Inc., priority 2017, dated 2020):
Counter-ions that a name gives are not always drawn.

Molecular target: catalytic domain of human PARP14 (Homo sapiens (Human), UniProt Q460N5)
Experiment: Enzymatic assay for inhibition of PARP14 (DELFIA, auto-modification with biotin-NAD)
Assay type: biochemical
Conditions: auto-modification of PARP14 by biotin-NAD, 50 nM PARP14, 3 μM biotin-NAD
Description: An N-terminal His-TEV fusion tag was used to purify the protein from cell lysates. The His-TEV tag was left on the protein for use in the enzymatic assay.
Enzymatic inhibition of PARP14 was measured using a dissociation-enhanced lanthanide fluorescence immunoassay (DELFIA) monitoring the auto-modification of PARP14 by biotinylated nicotinamide adenine dinucleotide (biotin-NAD). 1 μL of a dose response curve of each test compound was spotted in 384-well nickel-coated white microplates (Thermo) using a Mosquito (TTP Labtech). Reactions were performed in a 50 μL volume by adding 40 μL of PARP14 in assay buffer (20 mM HEPES pH==8, 100 mM NaCl, 0.1% bovine serum albumin, 2 mM DTT and 0.002%0 Tween20), incubating with test compound at 25° C. for 30 min, then adding 10 μL of biotin-NAD (Biolog). The final concentrations of PARP14 and biotin-NAD are 50 nM and 3 μM, respectively. Reactions proceeded at 25° C. for 3 h, then were quenched with 5 μL of 10 mM unmodified nicotinamide adenine dinucleotide (Sigma-Aldrich). The quenched reactions were washed 3 times with 100 μL of TBST wash buffer (50 mM Tris-HCl, 150 mM NaCl and 0.1% Tween20). Next, to the washed and dried plate was added 25 μL of DELFIA Europium-N1 streptavidin (Perkin Elmer) diluted in DELFIA assay buffer (Perkin Elmer). After a 30 min incubation at 25° C., the plate was washed 5 times with TBST wash buffer. Finally, 25 μL of DELFIA enhancement solution was added. After a 5 min incubation the plate was read on an Envision platereader equipped with a LANCE/DELFIA top mirror (Perkin Elmer) using excitation of 340 nm and emission of 615 nm to measure the amount of Europium present in each well, informing on the amount of biotin-NAD that was transferred in the automodification reaction.
[formula] where ex615cmpd is the emission from the compound treated well, ex615min is the emission from the rucaparib treated positive control well and ex615max is the emission from the DMSO treated negative control well.
The % inhibition values were plotted as a function of compound concentration and the following 4-parameter fit was applied to derive the IC50 values:
[formula] where top and bottom are normally allowed to float, but may be fixed at 100 or 0 respectively in a 3-parameter fit. The Hill Coefficient is normally allowed to float but may also be fixed at 1 in a 3-parameter fit. Y is the % inhibition and X is the compound concentration.

Sequence of catalytic domain of human PARP14 (Q460N5 1611-1801): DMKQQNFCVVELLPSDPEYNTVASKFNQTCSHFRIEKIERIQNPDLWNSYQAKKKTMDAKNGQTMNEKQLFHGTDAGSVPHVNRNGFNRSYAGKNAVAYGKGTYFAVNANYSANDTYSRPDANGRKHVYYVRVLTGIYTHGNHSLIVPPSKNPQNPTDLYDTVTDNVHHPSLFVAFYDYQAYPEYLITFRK

Row | IC50 | Structure (SMILES)
1 | < 1000 nM | O=c1[nH]c(CSC2CCOCC2)nc2cc(NC3CCCC3(F)F)cc(F)c12 (stereo not drawn) [Example 231, 7-((2,2-Difluorocyclopentyl)amino)-5-fluoro-2-(((tetrahydro-2H-pyran-4-yl)thio)methyl)quinazolin-4(3H)-one]
2 | < 1000 nM | Cc1cccc2c(=O)[nH]c(CSC3CCOCC3)nc12 [Example 2]
3 | < 1000 nM | O=c1[nH]c(CSC2CCNCC2)nc2cc(NC3CCCC3)ccc12 [Example 179, 7-(cyclopentylamino)-2-((piperidin-4-ylthio)methyl)quinazolin-4(3H)-one]
4 | < 1000 nM | O=c1[nH]c(CSC2CCS(=O)(=O)CC2)nc2cc(NCC3CCC3)c(F)cc12 [Example 296, 7-((Cyclobutylmethyl)amino)-2-(((1,1-dioxidotetrahydro-2H-thiopyran-4-yl)thio)methyl)-6-fluoroquinazolin-4(3H)-one]
5 | 1000 to 10000 nM | Cc1ccncc1Nc1ccc2c(=O)[nH]c(CSC3CCOCC3)nc2c1 [Example 91, 7-((4-Methylpyridin-3-yl)amino)-2-(((tetrahydro-2H-pyran-4-yl)thio)methyl)quinazolin-4(3H)-one]
6 | < 1000 nM | Cc1cccc2c(=O)[nH]c(CSC3CCCNCC3)nc12 (stereo not drawn) [Example 20, 2-((Azepan-4-ylthio)methyl)-8-methylquinazolin-4(3H)-one Trifluoroacetate]
7 | > 10000 nM | Nc1cnn(-c2ccc3c(=O)[nH]c(CSC4CCOCC4)nc3c2)c1 [Example 93, 7-(4-Amino-1H-pyrazol-1-yl)-2-(((tetrahydro-2H-pyran-4-yl)thio)methyl) quinazolin-4(3H)-one Trifluoroacetate]
8 | < 1000 nM | CO[C@H]1CC[C@H](SCc2nc3cc(OCC4CCOCC4)cc(F)c3c(=O)[nH]2)CC1 [Example 356]

Continued, compound first:

Row | Structure (SMILES) | IC50
9 | O=c1[nH]c(CS[C@H]2CC[C@@H](C(=O)O)CC2)nc2cc(NC3CCCC3)cc(F)c12 [Example 216, cis-4-(((7-(Cyclopentylamino)-5-fluoro-4-oxo-3,4-dihydroquinazolin-2-yl)methyl)thio)cyclohexane-1-carboxylic acid] | 1000 to 10000 nM
10 | O=c1[nH]c(CSC2CCNCC2)nc2nc(OCC3CC3)ccc12 [Example 229, 7-(Cyclopropylmethoxy)-2-((piperidin-4-ylthio)methyl)pyrido[2,3-d]pyrimidin-4(3H)-one Hydrochloride] | < 1000 nM
11 | O=c1[nH]c(CSC2CCOCC2)nc2cc(OCC3CCOCC3)cc(Cl)c12 [Example 353] | < 1000 nM
12 | O=c1[nH]c(CS[C@H]2CC[C@H](O)CC2)nc2cc(NC3CCCC3)cc(F)c12 [Example 185, 7-(cyclopentylamino)-5-fluoro-2-((((1R,4R)-4-hydroxycyclohexyl)thio)methyl)quinazolin-4(3H)-one] | < 1000 nM
13 | O=c1[nH]c(CSC2CCOCC2)nc2cc(NC3CCCNC3)ccc12 (stereo not drawn) [Example 127, 7-(3-Piperidylamino)-2-(tetrahydropyran-4-ylsulfanylmethyl)-3H-quinazolin-4-one] | > 10000 nM
14 | O=c1[nH]c(CSC2CCOCC2)nc2cc(OC[C@H]3CCCO3)cc(F)c12 [Example 321a, (R)-5-Fluoro-2-(((tetrahydro-2H-pyran-4-yl)thio)methyl)-7-((tetrahydrofuran-2-yl)methoxy)quinazolin-4(3H)-one] | < 1000 nM
15 | Cc1cccc2c(=O)[nH]c(CSC3CCNC3)nc12 (stereo not drawn) [Example 15, 8-Methyl-2-((pyrrolidin-3-ylthio)methyl)quinazolin-4(3H)-one trifluoroacetate] | 1000 to 10000 nM
16 | CC(=O)N[C@H]1CC[C@H](SCc2nc3cc(OCC4CCOCC4)cc(F)c3c(=O)[nH]2)CC1 [Example 426] | < 1000 nM
17 | Cc1ccc(Cl)c2c(=O)[nH]c(CSC3CCOCC3)nc12 [Example 34, 5-Chloro-8-methyl-2-(((tetrahydro-2H-pyran-4-yl)thio)methyl)quinazolin-4(3H)-one] | < 1000 nM
18 | Cc1cccc2c(=O)[nH]c(CS[C@H]3CCC[C@H](CO)C3)nc12 (relative stereo) [Example 70, 2-(((trans-3-(Hydroxymethyl)cyclohexyl)thio)methyl)-8-methylquinazolin-4(3H)-one] | 1000 to 10000 nM
